From the supplement of paper PMC10307832 come the findings set out here.

Holding throughout (experiment): relative viability (nuclei count vs DMSO), 5 days (fraction); higher = more cells survive
Compound in assay [1]: C1COCCN1C2=NC(=NC3=C2OC4=C3C=CC=N4)C5=CC(=CC=C5)NC(=O)C6=CN=C(C=C6)N + CS(=O)(=O)N1CCN(Cc2cc3nc(-c4cccc5[nH]ncc45)nc(N4CCOCC4)c3s2)CC1 [Pictilisib] (partner 1 µM)
A digest of the protocol: (§1)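 Five library-drug doses in √10 steps were combined with a fixed anchor-drug dose, or a single drug was given alone, by pin tool to lung cancer cell lines in 1536-well plates the day after seeding. Nuclei were stained and counted after 5 days. Relative viability is the nuclei count in treated wells over that in vehicle wells, taken as the median of duplicate plates.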

Compound in the assay “SGI-1776 + Alpelisib”: CN1CCC(CNc2ccc3ncc(-c4cccc(OC(F)(F)F)c4)n3n2)CC1 [SGI-1776] + Cc1nc(NC(=O)N2CCC[C@H]2C(N)=O)sc1-c1ccnc(C(C)(C)C(F)(F)F)c1 [Alpelisib] (partner 2 µM)
The gist of the method: as §1

Compound in the assay “Entinostat + Phenformin”: Nc1ccccc1NC(=O)c1ccc(CNC(=O)OCc2cccnc2)cc1 [Entinostat] + N=C(N)NC(=N)NCCc1ccccc1 [Phenformin] (partner 250 µM)
The gist of the method: as §1

Compound in assay [2]: C1COCCN1C2=NC(=NC3=C2OC4=C3C=CC=N4)C5=CC(=CC=C5)NC(=O)C6=CN=C(C=C6)N + CC(=O)Nc1cccc(-n2c(=O)n(C3CC3)c(=O)c3c(Nc4ccc(I)cc4F)n(C)c(=O)c(C)c32)c1 [Trametinib] (partner 0.02 µM)
The gist of the method: as §1

Consider NCI-H1944, for which the relative viability in assay [1] (first compound 0.02 µM) was found to be 0.358; in assay [1] (first compound 0.06325 µM), 0.365; in assay [1] (first compound 0.2 µM), 0.356; in assay [1] (first compound 0.6325 µM), 0.37; in assay [1] (first compound 2 µM), 0.316; in the assay with SGI-1776 + Alpelisib (first compound 0.08 µM), 0.877. Besides, the relative viability came to 0.752 with SGI-1776 + Alpelisib (first compound 0.8 µM); 0.807 with SGI-1776 + Alpelisib (first compound 2.53 µM); 0.649 with SGI-1776 + Alpelisib (first compound 8 µM); 0.193 with Entinostat + Phenformin (first compound 0.02 µM); 0.182 in the assay with Entinostat + Phenformin (first compound 0.06325 µM); 0.168 in the assay with Entinostat + Phenformin (first compound 0.2 µM). In addition, the relative viability was determined as 0.13 in the assay with Entinostat + Phenformin (first compound 0.6325 µM); 0.142 with Entinostat + Phenformin (first compound 2 µM); 0.378 in assay [2] (first compound 0.02 µM); 0.453 in assay [2] (first compound 0.06325 µM); 0.451 in assay [2] (first compound 0.2 µM); 0.382 in assay [2] (first compound 0.6325 µM). In assay [2] (first compound 2 µM), the relative viability was 0.377.

Consider NCI-H1975, for which the relative viability in assay [1] (first compound 0.02 µM) is 0.276; in assay [1] (first compound 0.06325 µM), 0.309; in assay [1] (first compound 0.2 µM), 0.278; in assay [1] (first compound 0.6325 µM), 0.273; in assay [1] (first compound 2 µM), 0.257; in the assay with SGI-1776 + Alpelisib (first compound 0.08 µM), 0.674. Further, the relative viability with SGI-1776 + Alpelisib (first compound 0.8 µM) came to 0.598; with SGI-1776 + Alpelisib (first compound 2.53 µM), 0.501; with SGI-1776 + Alpelisib (first compound 8 µM), 0.322; in the assay with Entinostat + Phenformin (first compound 0.02 µM), 0.376; in the assay with Entinostat + Phenformin (first compound 0.06325 µM) it was 0.348; in the assay with Entinostat + Phenformin (first compound 0.2 µM) it was 0.342. In addition, the relative viability in the assay with Entinostat + Phenformin (first compound 0.6325 µM) came out at 0.238; with Entinostat + Phenformin (first compound 2 µM), 0.19; in assay [2] (first compound 0.02 µM), 0.315; in assay [2] (first compound 0.06325 µM), 0.362; in assay [2] (first compound 0.2 µM), 0.307; in assay [2] (first compound 0.6325 µM), 0.348. Moreover, the relative viability in assay [2] (first compound 2 µM) amounted to 0.31.

As to NCI-H1993, the relative viability in assay [1] (first compound 0.02 µM) turned out to be 0.76; in assay [1] (first compound 0.06325 µM), 0.708; in assay [1] (first compound 0.2 µM), 0.861; in assay [1] (first compound 0.6325 µM), 0.791; in assay [1] (first compound 2 µM), 0.85; with SGI-1776 + Alpelisib (first compound 0.08 µM), 0.631. For the same cell line, the relative viability with SGI-1776 + Alpelisib (first compound 0.8 µM) stood at 0.684; with SGI-1776 + Alpelisib (first compound 2.53 µM) it was 0.687; with SGI-1776 + Alpelisib (first compound 8 µM), 0.594; with Entinostat + Phenformin (first compound 0.02 µM), 0.489; in the assay with Entinostat + Phenformin (first compound 0.06325 µM) it was 0.579; in the assay with Entinostat + Phenformin (first compound 0.2 µM), 0.495. For the same cell line, the relative viability amounted to 0.536 with Entinostat + Phenformin (first compound 0.6325 µM); 0.563 with Entinostat + Phenformin (first compound 2 µM); 0.521 in assay [2] (first compound 0.02 µM); 0.583 in assay [2] (first compound 0.06325 µM); 0.571 in assay [2] (first compound 0.2 µM); 0.421 in assay [2] (first compound 0.6325 µM). In addition, in assay [2] (first compound 2 µM), the relative viability was determined as 0.526.

Take NCI-H2009: the relative viability in assay [1] (first compound 0.02 µM) stood at 0.8; in assay [1] (first compound 0.06325 µM), 0.819; in assay [1] (first compound 0.2 µM), 0.804; in assay [1] (first compound 0.6325 µM), 0.804; in assay [1] (first compound 2 µM), 0.603; in the assay with SGI-1776 + Alpelisib (first compound 0.08 µM), 1.21. Moreover, the relative viability was determined as 1.17 with SGI-1776 + Alpelisib (first compound 0.8 µM); 1.25 with SGI-1776 + Alpelisib (first compound 2.53 µM); 1.09 with SGI-1776 + Alpelisib (first compound 8 µM); 0.466 with Entinostat + Phenformin (first compound 0.02 µM); 0.499 with Entinostat + Phenformin (first compound 0.06325 µM); 0.468 with Entinostat + Phenformin (first compound 0.2 µM). Moreover, the relative viability in the assay with Entinostat + Phenformin (first compound 0.6325 µM) was found to be 0.418; in the assay with Entinostat + Phenformin (first compound 2 µM), 0.304; in assay [2] (first compound 0.02 µM), 0.264; in assay [2] (first compound 0.06325 µM), 0.273; in assay [2] (first compound 0.2 µM) it was 0.221; in assay [2] (first compound 0.6325 µM) it was 0.245. In addition, the relative viability in assay [2] (first compound 2 µM) came out at 0.256.

For the cell line NCI-H2023, the relative viability in assay [1] (first compound 0.02 µM) was found to be 0.273; in assay [1] (first compound 0.06325 µM), 0.211; in assay [1] (first compound 0.2 µM), 0.216; in assay [1] (first compound 0.6325 µM), 0.23; in assay [1] (first compound 2 µM), 0.193; with SGI-1776 + Alpelisib (first compound 0.08 µM), 0.595. Moreover, the relative viability in the assay with SGI-1776 + Alpelisib (first compound 0.8 µM) worked out at 0.546; with SGI-1776 + Alpelisib (first compound 2.53 µM), 0.546; with SGI-1776 + Alpelisib (first compound 8 µM), 0.414; with Entinostat + Phenformin (first compound 0.02 µM), 0.355; in the assay with Entinostat + Phenformin (first compound 0.06325 µM) it was 0.407; with Entinostat + Phenformin (first compound 0.2 µM), 0.327. For the same cell line, the relative viability with Entinostat + Phenformin (first compound 0.6325 µM) amounted to 0.162; in the assay with Entinostat + Phenformin (first compound 2 µM) it was 0.0942; in assay [2] (first compound 0.02 µM), 0.509; in assay [2] (first compound 0.06325 µM), 0.717; in assay [2] (first compound 0.2 µM) it was 0.564; in assay [2] (first compound 0.6325 µM), 0.416. Moreover, the relative viability in assay [2] (first compound 2 µM) was 0.246.

For the cell line NCI-H2085, the relative viability in assay [1] (first compound 0.02 µM) stood at 0.441; in assay [1] (first compound 0.06325 µM), 0.474; in assay [1] (first compound 0.2 µM) it was 0.464; in assay [1] (first compound 0.6325 µM), 0.446; in assay [1] (first compound 2 µM), 0.421; with SGI-1776 + Alpelisib (first compound 0.08 µM) it was 1.01. Further, the relative viability in the assay with SGI-1776 + Alpelisib (first compound 0.8 µM) is 0.96; in the assay with SGI-1776 + Alpelisib (first compound 2.53 µM), 0.978; in the assay with SGI-1776 + Alpelisib (first compound 8 µM), 0.844; with Entinostat + Phenformin (first compound 0.02 µM) it was 0.716; with Entinostat + Phenformin (first compound 0.06325 µM) it was 0.774; with Entinostat + Phenformin (first compound 0.2 µM), 0.706. Further, the relative viability came out at 0.461 with Entinostat + Phenformin (first compound 0.6325 µM); 0.375 in the assay with Entinostat + Phenformin (first compound 2 µM); 0.586 in assay [2] (first compound 0.02 µM); 0.582 in assay [2] (first compound 0.06325 µM); 0.359 in assay [2] (first compound 0.2 µM); 0.549 in assay [2] (first compound 0.6325 µM). The relative viability in assay [2] (first compound 2 µM) came out at 0.359.
